Test system: conscious dogs
Assay: Effects of regadenoson on HR and CBF before and after metoprolol in conscious dogs
Type: in vivo, dog
Conditions: for Reg-induced tachycardia after metoprolol, % of control: metoprolol 1.5 mg/kg IV; for reduction of Reg-induced coronary vasodilation from control: metoprolol 1.5 mg/kg
Method: Five mongrel dogs were chronically instrumented for measurements of systemic hemodynamics and coronary blood flow (CBF). The effects of regadenoson (1, 2.5 and 5 μg/kg, IV) on HR and CBF were assessed before and after administration of the β1-adrenergic receptor blocker metoprolol (1.5 mg/kg). Values of peak CBF and the duration of the two-fold increase in CBF above baseline were used to assess Reg-induced coronary vasodilation.

COCCc1ccc(OCC(O)CNC(C)C)cc1 (stereo not drawn) [metoprolol]
Reg-induced tachycardia after metoprolol, % of control (Reg 1 μg/kg IV): 55±12 % of control
Reg-induced tachycardia after metoprolol, % of control (Reg 2.5 μg/kg IV): 54±7 % of control
Reg-induced tachycardia after metoprolol, % of control (Reg 5 μg/kg IV): 45±4 % of control
reduction of Reg-induced coronary vasodilation from control (Reg 1 μg/kg IV): 11±7%
reduction of Reg-induced coronary vasodilation from control (Reg 2.5 μg/kg IV): 10±4%
reduction of Reg-induced coronary vasodilation from control (Reg 5 μg/kg IV): 21±2%
